Source: publication PMC5618426, “APETx4, a Novel Sea Anemone Toxin and a Modulator of the Cancer-Relevant Potassium Channel KV10.1” (Marine Drugs, 2017)
Positions of bridges follow the written chain, without caps; N, C: chain ends. No end group written: not given here.

Tests used:
LNCaP = assay: proliferation (IncuCyte confluency); format: cell-based, human; conditions: cell confluency (%) over time, n = 4 wells
Experimental: (§1) The cell proliferation was quantified in terms of cell confluency (%) over time; data points were collected every hour. […] LNCaP, it is presumed that the observed effect cannot only be attributed to KV10.1 inhibition (Figure S5).
(§2) Cell lines SH-SY5Y (ACC 209), LNCaP (ACC 256) and NIH-3T3 (ACC 59) were purchased from DSMZ (Germany). MDA-MB-435S (HTB 129) and hTERT RPE-1 (CRL 4000) were obtained from ATCC (USA). Cell lines were cultured in their recommended media supplemented with 10% or 15% FCS (PAA laboratories, Cölbe, Germany) at 37 °C in humidified 5% CO2 atmosphere. All media were purchased from ThermoFisher Scientific (Waltham, MA, USA).
(§3) Cell proliferation, cytotoxicity and apoptosis were assessed in a 96-well microtiter plate by live-cell imaging using an IncuCyte Zoom System (Essen BioScience, Welwyn Garden City, UK). Cell proliferation was monitored in terms of cell confluency (%). Cell cytotoxicity was assessed by the CellTox Green Dye assay (Promega, Madison, WI, USA). The IncuCyte Caspase-3/7 apoptosis assay (Essen BioScience, UK) was used to evaluate the effect of APETx4 on the apoptotic pathway.
(§4) Live-cell imaging data were collected from the IncuCyte Zoom software and analyzed using GraphPad Prism 6 software. Proliferation was measured as Phase Object Confluence (%), cytotoxicity and apoptosis were measured as Green Object Count (1/mm²). Data points were collected every hour. In order to improve the clarity of the graphs, only the data points for every 5 h are shown. All data are represented as mean ± S.E.M of n = 4 different wells.

hTERT RPE-1 = assay: proliferation (IncuCyte confluency); format: cell-based, human; conditions: cell confluency (%) over time, n = 4 wells
Experimental: as §1, §2, §3, §4

Sequence: GTTCYCGKTIGIYWFGKYSCPTNRGYTGSCPYFLGICCYPVD (disulfide 4-37, 6-30, 20-38) [APETx4]
- antiproliferative effect (LNCaP): concentration-dependent antiproliferative effect
- antiproliferative effect (hTERT RPE-1): concentration-dependent antiproliferative effect
